Results as given in patent US20130079345A1, “[…] ACTIVE DISUBSTITUTED TRIAZINE DERIVATIVES” (BAYER INTELLECTUAL PROPERTY GMBH, priority 2010, published 2013).
Where a name gives a salt, the structure may show the parent alone.

Tests used:
[1] = target: T1, CDK9/CycT1 (Homo sapiens, UniProt P50750); experiment: CDK9/CycT1 kinase assay (TR-FRET); type: biochemical; conditions: ATP 10 μM
T1 construct: Recombinant full-length His-tagged human CDK9 and CycT1; His; purchased Invitrogen PV4131; host or cells: insect cells
Excerpt: CDK9/CycT1-inhibitory activity of compounds of the present invention was quantified employing the CDK9/CycT1 TR-FRET assay as described in the following paragraphs.
Recombinant full-length His-tagged human CDK9 and CycT1, expressed in insect cells and purified by Ni-NTA affinity chromatography, were purchased from Invitrogen (catalogue number PV4131). A biotinylated peptide biotin-Ttds-[…] (C-terminus in amide form), which can be purchased from e.g the company JERINI Peptide Technologies (Berlin, Germany), was used as a substrate for the kinase reaction.
For the assay, 50 nl of a 100-fold concentrated solution of the test compound in DMSO was pipetted into a well of a black low-volume 384-well microtiter plate (Greiner Bio-One, Frickenhausen, Germany), 2 μl of a solution of CDK9/CycT1 in aqueous assay buffer [50 mM Tris/HCl pH 8.0], 10 mM MgCl2, 1.0 mM dithiothreitol, 0.1 mM sodium ortho-vanadate, 0.01% (v/v) Nonidet-P40 (Sigma)] were added. The mixture was incubated at 22° C. for 15 min to allow pre-binding of the test compounds to the enzyme before the start of the kinase reaction. […] The resulting mixture was incubated at 22° C. for a reaction time of 25 minutes. The concentration of CDK9/CycT1 was adjusted depending of the activity of the enzyme lot and was chosen appropriately for measurements in the linear range of the assay. Typical concentrations were in the range of 1 μg/ml. The reaction was stopped by the addition of 5 μl of a solution of TR-FRET detection reagents (0.2 μM streptavidine-XL and 1 nM anti-RB(pSer807/pSer811)-antibody from BD Pharmingen [#558389] and 1.2 nM LANCE EU-W1024 labeled anti-mouse IgG antibody [Perkin-Elmer, product no. AD0077]) in an aqueous EDTA-solution (100 mM EDTA, 0.2% (w/v) bovine serum albumin in 100 mM HEPES/NaOH, pH 7.0).
The resulting mixture was incubated at 22° C. for one hour to allow the formation of a complex between the phosphorylated biotinylated peptide and the detection reagents. Subsequently, the amount of phosphorylated substrate was evaluated by measurement of the resonance energy transfer from the Eu-chelate to the streptavidine-XL. Therefore, the fluorescence emissions at 620 nm and 665 nm after excitation at 350 nm were measured in a HTRF reader, e.g. a Rubystar (BMG Labtechnologies, Offenburg, Germany) or a Viewlux (Perkin-Elmer). The ratio of the emissions at 665 nm and at […] was taken as a measure for the amounts of phosphorylated substrate. The data were normalised, i.e. enzyme reaction without inhibitor corresponds to 0% inhibition, and all other assay components in the absence of the enzyme correspond to 100% inhibition. IC50 values were calculated by a 4-parameter fit using in-house software.

[2] = tested on: HeLa cells; experiment: Cell viability, HeLa cells; type: cell-based; conditions: Homo sapiens
Experimental: HeLa- or MDAMB468-Cells or MATU ADR, H460, DU145, CACO-2 or B16F10 cells were maintained in RPMI 1640 or McCoy's 5A cell culture medium+glutamine (PAN Biotech GmbH, Aidenbach, Germany; order no. P04-22100; P04-05500) supplemented with 10% fetal calf serum “Gold” (PAA Laboratories GmbH, Pasching, Austria; order no. A15-151) and grown at 37° C., 5% CO2. For the cell viability assay, cells were seeded with a density of 400 (Hela cells, DSMZ Braunschweig order no. ACC57) or 800 (MDAMB468 cells, ATCC order no. HTB-132) per well in 25 μL in 384-well plates (Greiner Bio-One, Frickenhausen, Germany; order no. 781080). After overnight incubation at 37° C./5% CO2, 25 nL or 75 nL compound were added to each sample well by using BIOMEK FXP Laboratory Automation Workstation (Beckman Coulter, USA). Wells with cells and 0.1% or 0.3% DMSO in culture medium were used as positive controls, wells with cells and 10 μM staurosporine in culture medium were used as negative controls. The cells were incubated with the compounds for 72 h at 37° C./5% CO2. For measurement of cell viability […] Cell Titer Glo reagent (Promega, Madison, USA; order no. G7573), 1:2 diluted with cell culture medium, was added to each well. The 384well-plates were placed for 2 min on an orbital microplate shaker and incubated for further 10 min at room temperature to stabilize the luminescence signal. Luminescence was measured by Envision Plate Reader (Perkin Elmer, USA). EC50 values were calculated with the software Excel Fit (IDBS, Guildford, UK) from 3-fold dilution series comprising at least 8 concentrations in duplicates.
Cultivated tumour cells (NCl-H460, human non-small cell lung carcinoma cells, ATCC HTB-177; DU 145, hormone-independent human prostate carcinoma cells, ATCC HTB-81; HeLa-MaTu, human cervical carcinoma cells, EPO-GmbH, Berlin; HeLa-MaTu-ADR, multidrug-resistant human cervical carcinoma cells, EPO-GmbH, Berlin; HeLa human cervical tumour cells, ATCC CCL-2; Caco-2 human colorectal carcinoma, ATCC HTB-37; B16F10 mouse melanoma cells, ATCC CRL-6475) were plated at a density of 5,000 cells/well (DU145, HeLa-MaTu-ADR), 3,000 cells/well (NCl-H460, HeLa-MaTu, HeLa), 1,500 cells/well (Caco-2), or 1,000 cells/well (B16F10) in a 96-well multititer plate in 200 μL of their respective growth medium supplemented with 10% fetal calf serum. After 24 hours, the cells of one plate (zero-point plate) were stained with crystal violet (see below), while the medium of the other plates was replaced by fresh culture medium (200 μl), to which the test substances were added in various concentrations (0 μM as well as in the range of 0.001 to 10 μM; the final concentration of the solvent dimethyl sulfoxide was 0.5%). The cells were incubated in the presence of test substances for 4 days. Cell proliferation was determined by staining the cells with crystal violet: The cells were fixed by adding 20 μl/measuring point of an 11% glutaric aldehyde solution at room temperature for 15 minutes. After three washing cycles of the fixed cells with water, the plates were dried at room temperature. The cells were stained by adding 100 μl/measuring point of a 0.1% crystal violet solution (pH 3.0). After three washing cycles of the stained cells with water, the plates were dried at room temperature. The dye was dissolved by adding 100 μl/measuring point of a 10% acetic acid solution. The extinction was determined by photometry at a wavelength of 595 nm. The change of cell number, in percent, was calculated by normalization of the measured values to the extinction values of the zero-point plate (equivalent to 0%) and the extinction of the untreated (0 μm) cells (equivalent to 100%). The IC50 values were determined by means of a 4 parameter fit using the company's own software.

T1 sequence (P50750 whole entry): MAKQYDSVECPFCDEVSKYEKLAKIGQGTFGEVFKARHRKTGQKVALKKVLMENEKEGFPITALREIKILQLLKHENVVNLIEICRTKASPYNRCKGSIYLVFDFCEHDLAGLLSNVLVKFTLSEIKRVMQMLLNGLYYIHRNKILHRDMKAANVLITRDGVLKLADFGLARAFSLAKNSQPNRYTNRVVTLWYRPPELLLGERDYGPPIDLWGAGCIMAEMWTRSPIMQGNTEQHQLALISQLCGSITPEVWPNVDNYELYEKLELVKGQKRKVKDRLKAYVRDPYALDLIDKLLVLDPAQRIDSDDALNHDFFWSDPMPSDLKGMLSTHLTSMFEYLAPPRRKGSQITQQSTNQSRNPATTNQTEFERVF
T1 sequence (O60563 whole entry partner): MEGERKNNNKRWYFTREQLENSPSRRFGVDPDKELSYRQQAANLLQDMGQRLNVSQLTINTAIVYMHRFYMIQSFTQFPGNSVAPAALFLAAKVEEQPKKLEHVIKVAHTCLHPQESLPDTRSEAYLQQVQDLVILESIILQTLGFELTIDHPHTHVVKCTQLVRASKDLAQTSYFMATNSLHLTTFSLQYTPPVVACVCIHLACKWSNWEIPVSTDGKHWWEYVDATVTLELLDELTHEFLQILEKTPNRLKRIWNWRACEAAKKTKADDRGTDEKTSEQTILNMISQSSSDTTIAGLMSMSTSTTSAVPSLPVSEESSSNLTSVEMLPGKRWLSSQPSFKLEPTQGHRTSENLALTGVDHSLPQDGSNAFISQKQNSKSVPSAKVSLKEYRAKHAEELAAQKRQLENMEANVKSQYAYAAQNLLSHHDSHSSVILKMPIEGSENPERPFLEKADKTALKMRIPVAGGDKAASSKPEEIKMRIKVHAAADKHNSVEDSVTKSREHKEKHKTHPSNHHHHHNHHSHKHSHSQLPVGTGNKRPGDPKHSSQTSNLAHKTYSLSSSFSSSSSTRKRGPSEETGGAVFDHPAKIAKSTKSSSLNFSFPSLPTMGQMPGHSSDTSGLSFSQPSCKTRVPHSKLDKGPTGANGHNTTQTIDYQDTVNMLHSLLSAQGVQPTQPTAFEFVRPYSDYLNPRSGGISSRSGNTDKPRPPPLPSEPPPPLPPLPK

COc1cc(F)ccc1-c1ncnc(Nc2cccc(CS(N)(=O)=O)c2)n1 [Compound B2, 3-[(4-(4-Fluoro-2-methoxyphenyl)-1,3,5-triazin-2-yl)amino]benzenemethanesulfonamide] was tested, and the IC50 ([1]; values in nM) was 8.1 nM and the IC50 [2] was 1 µM.

COc1ccccc1-c1cc(Nc2cccc(CS(=O)(=O)N(C)C)c2)ncn1 [Ref4, C-{3-[6-(2-Methoxy-phenyl)-pyrimidin-4-ylamino]-phenyl}-N,N-dimethylmethanesulfonamide, reference compound] was tested, and the IC50 ([1]; values in nM) was 49 nM and the IC50 [2] was 6.1 µM.

With NS(=O)(=O)Cc1cccc(Nc2ncnc(-c3ccccc3OCc3ccccc3)n2)c1 [B13′, 3-[(4-(2-Benzyloxyphenyl)-1,3,5-triazin-2-yl)amino]benzenemethanesulfonamide trifluoroacetic acid salt] the IC50 [2] was 0.31 µM.

Compound NS(=O)(=O)Cc1cccc(Nc2ncnc(-c3ccccc3Oc3ccccc3)n2)c1 [Compound B14, 1-(3-{[4-(2-phenoxyphenyl)-1,3,5-triazin-2-yl]amino}phenyl)methanesulfonamide] has an IC50 ([1]; values in nM) of 62 nM.

Work on COc1cc(F)ccc1-c1ncnc(Nc2ccc(S(C)(=O)=O)nc2)n1 [Compound U8, 4-(4-fluoro-2-methoxyphenyl)-N-[6-(methylsulfonyl)pyridin-3-yl]-1,3,5-triazin-2-amine] yielded an IC50 ([1]; values in nM) of 320 nM and an IC50 [2] of 4.2 µM.

In the case of COc1ccccc1-c1ncnc(Nc2cccc(CS(N)(=O)=O)c2)n1 [Compound B1, 3-[(4-(2-Methoxyphenyl)-1,3,5-triazin-2-yl)amino]benzenemethanesulfonamide], the IC50 ([1]; values in nM) is reported as 21 nM.

In the case of CNS(=O)(=O)Cc1cccc(Nc2cc(-c3ccccc3OC)ncn2)c1 [Ref2, C-{3-[6-(2-Methoxy-phenyl)-pyrimidin-4-ylamino]-phenyl}-N-methyl methanesulfonamide, reference compound], the IC50 ([1]; values in nM) is reported as 40 nM and the IC50 [2] is reported as 4.6 µM.

N#Cc1cc(F)ccc1-c1ncnc(Nc2cccc(CS(N)(=O)=O)c2)n1 [Compound U3, 1-(3-{[4-(2-cyano-4-fluorophenyl)-1,3,5-triazin-2-yl]amino}phenyl)methanesulfonamide] was tested, and the IC50 ([1]; values given in μM) was 3300 nM and the IC50 [2] was 10 µM.

CC(C)Oc1cc(F)ccc1-c1ncnc(Nc2cccc(CS(N)(=O)=O)c2)n1 [Compound U2, 1-[3-({4-[4-fluoro-2-(propan-2-yloxy)phenyl]-1,3,5-triazin-2-yl}amino)phenyl]methanesulfonamide] showed an IC50 ([1]; values in nM) of 28 nM and an IC50 [2] of 2.7 µM.

Work on COc1ccccc1-c1ncnc(Nc2cccc(CS(N)(=O)=O)c2)n1 [B1′, 3-[(4-(2-Methoxyphenyl)-1,3,5-triazin-2-yl)amino]benzenemethanesulfonamide trifluoroacetic acid salt] yielded an IC50 [2] of 3.2 µM.

For COc1cc(F)ccc1-c1ncnc(Nc2cccc(CS(N)(=O)=O)c2)n1 [B2′, 1-(3-{[4-(4-fluoro-2-methoxyphenyl)-1,3,5-triazin-2-yl]amino}phenyl)methanesulfonamide hydrochloride], the IC50 ([1]; values in nM) was 14 nM.

Compound COc1ccccc1-c1ncnc(Nc2cccc(S(N)(=O)=O)c2)n1 [C1′, 3-[(4-(2-Methoxyphenyl)-1,3,5-triazin-2-yl)amino]benzenesulfonamide trifluoroacetic acid salt] has an IC50 [2] of 1 µM.

Work on COc1cc(F)c(F)cc1-c1ncnc(Nc2cccc(CS(N)(=O)=O)c2)n1 [Compound U7, 1-(3-{[4-(4,5-difluoro-2-methoxyphenyl)-1,3,5-triazin-2-yl]amino}phenyl)methanesulfonamide] yielded an IC50 ([1]; values in nM) of 14 nM and an IC50 [2] of 1.2 µM.

Compound NS(=O)(=O)Cc1cccc(Nc2ncnc(-c3ccccc3OCc3ccccc3)n2)c1 [Compound B13, 3-[(4-(2-Benzyloxyphenyl)-1,3,5-triazin-2-yl)amino]benzenemethanesulfonamide] has an IC50 ([1]; values in nM) of 3.2 nM.
